Experimental findings from ChEMBL document CHEMBL1687846, “Ex vivo activity of histone deacetylase inhibitors against multidrug-resistant clinical isolates of Plasmodium falciparum and P. vivax” (Antimicrob Agents Chemother, 2011) are described below.

Assay [1] deals with Plasmodium vivax. As to the kind of experiment: Antimalarial activity against trophozoites stage of Plasmodium vivax assessed as parasites growth inhibition using giemsa staining after 24 to 56 hrs by microscopic analysis in presence of 20% human serum. Type of assay: functional, organism-based.
Assay [2] concerns Plasmodium falciparum. As to the kind of experiment: Antimalarial activity against chloroquine-sensitive Plasmodium falciparum 3D7 assessed as inhibition of [3H]hypoxanthine incorporation. Type of assay: functional, organism-based.
Assay [3] has as its system Plasmodium vivax. Nature of the assay: Antimalarial activity against Plasmodium vivax assessed as parasites growth inhibition using giemsa staining after 24 to 56 hrs by microscopic analysis in presence of 20% human serum. Type of assay: functional, organism-based.
Assay [4] concerns Plasmodium falciparum. As to the kind of experiment: Antimalarial activity against Plasmodium falciparum assessed as parasites growth inhibition using giemsa staining after 24 to 56 hrs by microscopic analysis in presence of 10% human serum. It counts as functional, organism-based.
Assay [5] relates to Plasmodium falciparum. As to the kind of experiment: Antimalarial activity against trophozoites stage of Plasmodium falciparum assessed as parasites growth inhibition using giemsa staining after 24 to 56 hrs by microscopic analysis in presence of 10% human serum. Type of assay: functional, organism-based.
Assay [6] concerns Plasmodium falciparum. As to the kind of experiment: Antimalarial activity against ring stage of Plasmodium falciparum assessed as parasites growth inhibition using giemsa staining after 24 to 56 hrs by microscopic analysis in presence of 10% human serum. It counts as functional, organism-based.
The subject of assay [7] is Plasmodium vivax. Nature of the assay: Antimalarial activity against ring stage of Plasmodium vivax assessed as parasites growth inhibition using giemsa staining after 24 to 56 hrs by microscopic analysis in presence of 20% human serum. It counts as functional, organism-based.
Assay [8] deals with Plasmodium falciparum. As to the kind of experiment: microbe, parasite or virus in culture. The note with it: K1, 3 h.
Description: Antimalarial activity against chloroquine-resistant Plasmodium falciparum K1 assessed as inhibition of [3H]hypoxanthine incorporation

As to `CCN(CC)Cc1cc(Nc2ccnc3cc(Cl)ccc23)ccc1O`, the IC50 in the assay with Plasmodium vivax [1] was determined as 21.1 nM; in the assay on Plasmodium falciparum [2] it was 2 nM; in the assay on Plasmodium vivax [3], 9.1 nM; with Plasmodium falciparum [4] it was 5 nM; in the assay with Plasmodium falciparum [5] it was 9.6 nM.

Turning to `O=C(/C=C/c1ccccc1)N[C@@H](CCCCCC(=O)NO)C(=O)Nc1cccc2cccnc12`, the IC50 in the assay on Plasmodium falciparum [6] is 492 nM; in the assay with Plasmodium vivax [7], 545 nM; with Plasmodium vivax [1] it was 438 nM; with Plasmodium vivax [3], 503 nM; with Plasmodium falciparum [4], 533 nM; in the assay on Plasmodium falciparum [5], 519 nM.

As for `O=C(CCCCC[C@H](NC(=O)c1cc2ccccc2[nH]1)C(=O)Nc1cccc2cccnc12)NO`, the IC50 turned out to be 238 nM in the assay on Plasmodium falciparum [6]; 327 nM in the assay with Plasmodium vivax [7]; 214 nM in the assay with Plasmodium vivax [1]; 278 nM with Plasmodium vivax [3]; 266 nM with Plasmodium falciparum [4]; 467 nM in the assay on Plasmodium falciparum [5].

`C[C@H]1[C@H](OC(=O)CCC(=O)O)O[C@@H]2O[C@@]3(C)CC[C@H]4[C@H](C)CC[C@@H]1[C@@]24OO3` [ARTESUNATE]: the IC50 with Plasmodium falciparum [6] came to 0.88 nM; with Plasmodium vivax [7], 0.75 nM; in the assay on Plasmodium falciparum [8] it was 1 nM; in the assay on Plasmodium vivax [1], 0.39 nM; in the assay on Plasmodium falciparum [2], 2 nM; with Plasmodium vivax [3], 0.74 nM. Further, the values for the half-inhibitory concentration (IC50) with Plasmodium falciparum [4] and with Plasmodium falciparum [5] were 0.92 nM and 1.19 nM, respectively.

As to `CCN(CC)CCCC(C)Nc1ccnc2cc(Cl)ccc12` (configuration not stated) [CHLOROQUINE], the IC50 in the assay with Plasmodium vivax [1] was found to be 841 nM; in the assay with Plasmodium vivax [3], 40.4 nM.

As to `OC(c1cc(C(F)(F)F)nc2c(C(F)(F)F)cccc12)C1CCCCN1` (configuration not stated) [MEFLOQUINE], the IC50 in the assay with Plasmodium vivax [7] is 9.2 nM; with Plasmodium vivax [1] it was 10.2 nM; with Plasmodium vivax [3], 7.7 nM; in the assay with Plasmodium falciparum [4], 6.3 nM.

On to `Clc1ccc2c(N3CCN(CCCN4CCN(c5ccnc6cc(Cl)ccc56)CC4)CC3)ccnc2c1` [PIPERAQUINE], for which the IC50 with Plasmodium vivax [7] is 15.5 nM; in the assay with Plasmodium falciparum [8], 11 nM; in the assay on Plasmodium vivax [1], 15.9 nM; in the assay on Plasmodium falciparum [2] it was 3 nM; with Plasmodium vivax [3], 13.2 nM; in the assay on Plasmodium falciparum [4], 10.8 nM.
